In brackets after ≈: the same amount, converted by molar mass.
Key:
[1] = molecular target: T1, PBP3 from Pseudomonas aeruginosa (PAO1) (Pseudomonas aeruginosa, UniProt G3XD46); experiment: Bocillin-FL fluorescence polarization competition binding, P. aeruginosa PBP3; conditions: Binding affinity to P. aeruginosa PBP3; fluorescence polarization competition binding assay using Bocillin-FL; read-out: P. aeruginosa PBP3 Potency
T1 construct: made in house
Procedure, shortened: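 Purified PBPs pre-incubated with inhibitor (E. coli PBP3 1.5 μM, 30 min; P. aeruginosa PBP3 0.75 μM, A. baumannii PBP1a 1 μM and PBP3 0.2 μM, 15 min), then Bocillin-FL 0.1 μM (0.05 μM for PBP1a) added; FP read up to 60 min. EC50 = concentration halving bound Bocillin-FL.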

A. baumannii CDC-0045 = experiment: microbe, parasite or virus in culture; assay type: cell-based; conditions: Acinetobacter baumannii, CDC0045, read-out: MIC, A. baumannii CDC-0045
A. baumannii CDC-0033 = experiment: microbe, parasite or virus in culture; assay type: cell-based; conditions: Acinetobacter baumannii, CDC0033, read-out: MIC, A. baumannii CDC-0033
P. aeruginosa CDC-0095 = experiment: microbe, parasite or virus in culture; assay type: cell-based; conditions: Pseudomonas aeruginosa, CDC0095, read-out: Minimum inhibitory concentration, P. aeruginosa CDC-0095

T1 sequence (G3XD46 whole entry): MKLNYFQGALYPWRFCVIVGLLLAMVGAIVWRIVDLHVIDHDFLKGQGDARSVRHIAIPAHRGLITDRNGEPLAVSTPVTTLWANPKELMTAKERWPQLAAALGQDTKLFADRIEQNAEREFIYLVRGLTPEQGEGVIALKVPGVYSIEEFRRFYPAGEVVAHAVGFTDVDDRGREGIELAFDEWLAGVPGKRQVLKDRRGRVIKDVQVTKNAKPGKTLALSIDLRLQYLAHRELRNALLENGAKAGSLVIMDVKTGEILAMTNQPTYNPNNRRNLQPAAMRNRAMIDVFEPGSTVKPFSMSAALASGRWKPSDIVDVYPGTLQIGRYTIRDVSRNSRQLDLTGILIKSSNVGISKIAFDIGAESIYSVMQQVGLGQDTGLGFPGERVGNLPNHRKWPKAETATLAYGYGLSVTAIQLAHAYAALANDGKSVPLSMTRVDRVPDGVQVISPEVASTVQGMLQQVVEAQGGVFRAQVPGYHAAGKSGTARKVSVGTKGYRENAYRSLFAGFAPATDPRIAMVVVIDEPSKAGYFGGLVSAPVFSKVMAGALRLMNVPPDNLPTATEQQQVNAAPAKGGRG

SMILES	IC50 [1]	MIC (A. baumannii CDC-0045)	MIC (A. baumannii CDC-0033)	MIC (P. aeruginosa CDC-0095)
CS(=O)(=O)N1CCN(C(=O)N[C@H](C(=O)N[C@H]2Cc3cccc(C(=O)O)c3OB2O)c2ccc(P(=O)(O)O)cc2)C1=O (single isomer, unassigned) [Example 5]	10 to 50 µM	–	–	–
CS(=O)(=O)N1CCN(C(=O)N[C@@H](C(=O)N[C@H]2Cc3cccc(C(=O)O)c3OB2O)c2ccc(P(=O)(O)O)cc2)C1=O (single isomer, unassigned) [Example 6]	< 10 µM	> 128 µg/mL	32 to 64 µg/mL (≈ 52.4 to 105 µM)	> 128 µg/mL
O=C(NCCCN1CCN(C(=O)N[C@H](C(=O)N[C@H]2Cc3ccc(F)c(C(=O)O)c3OB2O)c2cc(F)c(O)c(O)c2Cl)C(=O)C1=O)c1ccc(O)cc1Cl (single isomer, unassigned) [Example 470]	10 to 50 µM	> 128 µg/mL	8 to 16 µg/mL (≈ 10.1 to 20.1 µM)	< 1 µg/mL
O=C(NCCCN1CCN(C(=O)N[C@H](C(=O)N[C@H]2Cc3ccc(F)c(C(=O)O)c3OB2O)c2cc(F)c(O)c(O)c2Cl)C(=O)C1=O)c1cc(F)c(O)cc1F (single isomer, unassigned) [Example 472]	10 to 50 µM	8 to 16 µg/mL (≈ 10.1 to 20.1 µM)	8 to 16 µg/mL (≈ 10.1 to 20.1 µM)	< 1 µg/mL
CCN1CCN(C(=O)NC(C(=O)N[C@H]2Cc3cccc(C(=O)O)c3OB2O)c2ccc(P(=O)(O)O)cc2F)C(=O)C1=O (stereo partly drawn) [Example 1, (3R)-3-(2-(4-ethyl-2,3-dioxopiperazine-1-carboxamido)-2-(2-fluoro-4-phosphonophenyl)acetamido)-2-hydroxy-3,4-dihydro-2H-benzo[e][1,2]oxaborinine-8-carboxylic acid]	< 10 µM	–	–	–
CCN1CCN(C(=O)NC(C(=O)N[C@H]2Cc3cccc(C(=O)O)c3OB2O)c2cc(P(=O)(O)O)ccc2F)C(=O)C1=O (stereo partly drawn) [Example 2, (3R)-3-(2-(4-ethyl-2,3-dioxopiperazine-1-carboxamido)-2-(2-fluoro-5-phosphonophenyl)acetamido)-2-hydroxy-3,4-dihydro-2H-benzo[e][1,2]oxaborinine-8-carboxylic acid]	< 10 µM	–	–	–
NCCN1CCN(C(=O)NC(C(=O)N[C@H]2Cc3cccc(C(=O)O)c3OB2O)c2ccc(P(=O)(O)O)cc2)C(=O)C1=O (stereo partly drawn) [Example 3, (3R)-3-(2-(4-(2-aminoethyl)-2,3-dioxopiperazine-1-carboxamido)-2-(4-phosphonophenyl)acetamido)-2-hydroxy-3,4-dihydro-2H-benzo[e][1,2]oxaborinine-8-carboxylic acid]	10 to 50 µM	–	–	–
O=C(O)c1cccc2c1OB(O)[C@@H](NC(=O)C(NC(=O)N1CCN(CC(F)(F)F)C(=O)C1=O)c1ccc(P(=O)(O)O)cc1)C2 (stereo partly drawn) [Example 4, (3R)-3-(2-(2,3-dioxo-4-(2,2,2-trifluoroethyl)piperazine-1-carboxamido)-2-(4-phosphonophenyl)acetamido)-2-hydroxy-3,4-dihydro-2H-benzo[e][1,2]oxaborinine-8-carboxylic acid]	< 10 µM	–	–	–
O=C(NCCCN1CCN(C(=O)NC(C(=O)N[C@H]2Cc3ccc(F)c(C(=O)O)c3OB2O)c2cc(F)c(O)c(O)c2Cl)C1=O)c1cccnc1 (stereo partly drawn) [Example 281, (3R)-3-(2-(2-chloro-5-fluoro-3,4-dihydroxyphenyl)-2-(3-(3-(nicotinamido)propyl)-2-oxoimidazolidine-1-carboxamido)acetamido)-7-fluoro-2-hydroxy-3,4-dihydro-2H-benzo[e][1,2]oxaborinine-8-carboxylic acid]	< 10 µM	< 1 µg/mL	2 to 4 µg/mL (≈ 2.79 to 5.58 µM)	2 to 4 µg/mL (≈ 2.79 to 5.58 µM)
O=C(NCCCN1CCN(C(=O)N[C@H](C(=O)N[C@H]2Cc3ccc(F)c(C(=O)O)c3OB2O)c2cc(F)c(O)c(O)c2Cl)C1=O)Nc1ccc(O)cc1 [Example 283, (R)-3-((S)-2-(2-chloro-5-fluoro-3,4-dihydroxyphenyl)-2-(3-(3-(3-(4-hydroxyphenyl)ureido)propyl)-2-oxoimidazolidine-1-carboxamido)acetamido)-7-fluoro-2-hydroxy-3,4-dihydro-2H-benzo[e][1,2]oxaborinine-8-carboxylic acid]	50 to 250 µM	> 128 µg/mL	> 128 µg/mL	> 128 µg/mL
O=C(NCCS(=O)(=O)N1CCN(C(=O)N[C@H](C(=O)N[C@H]2Cc3ccc(F)c(C(=O)O)c3OB2O)c2cc(F)c(O)c(O)c2Cl)C1=O)c1ccc(O)cc1 [Example 286, (R)-3-((S)-2-(2-chloro-5-fluoro-3,4-dihydroxyphenyl)-2-(3-((2-(4-hydroxybenzamido)ethyl)sulfonyl)-2-oxoimidazolidine-1-carboxamido)acetamido)-7-fluoro-2-hydroxy-3,4-dihydro-2H-benzo[e][1,2]oxaborinine-8-carboxylic acid]	> 250 µM	> 128 µg/mL	> 128 µg/mL	> 128 µg/mL
O=C(NCCS(=O)(=O)N1CCN(C(=O)NC(C(=O)N[C@H]2Cc3ccc(F)c(C(=O)O)c3OB2O)c2cc(F)c(O)c(O)c2Cl)C1=O)c1ccncc1 (stereo partly drawn) [Example 288, (3R)-3-(2-(2-chloro-5-fluoro-3,4-dihydroxyphenyl)-2-(3-((2-(isonicotinamido)ethyl)sulfonyl)-2-oxoimidazolidine-1-carboxamido)acetamido)-7-fluoro-2-hydroxy-3,4-dihydro-2H-benzo[e][1,2]oxaborinine-8-carboxylic acid]	< 10 µM	< 1 µg/mL	8 to 16 µg/mL (≈ 10.4 to 20.9 µM)	8 to 16 µg/mL (≈ 10.4 to 20.9 µM)
O=C(NCCCS(=O)(=O)N1CCN(C(=O)NC(C(=O)N[C@H]2Cc3ccc(F)c(C(=O)O)c3OB2O)c2cc(F)c(O)c(O)c2Cl)C1=O)Nc1ccncc1 (stereo partly drawn) [Example 291, (3R)-3-(2-(2-chloro-5-fluoro-3,4-dihydroxyphenyl)-2-(2-oxo-3-((3-(3-(pyridin-4-yl)ureido)propyl)sulfonyl)imidazolidine-1-carboxamido)acetamido)-7-fluoro-2-hydroxy-3,4-dihydro-2H-benzo[e][1,2]oxaborinine-8-carboxylic acid]	< 10 µM	2 to 4 µg/mL (≈ 2.51 to 5.03 µM)	2 to 4 µg/mL (≈ 2.51 to 5.03 µM)	> 128 µg/mL
O=C(O)c1c(F)ccc2c1OB(O)[C@@H](NC(=O)C(NC(=O)N1CCN(Cc3ccc(O)c(O)c3Cl)C(=O)C1=O)c1cc(F)c(O)c(O)c1Cl)C2 (stereo partly drawn) [Example 292, (3R)-3-(2-(4-(2-chloro-3,4-dihydroxybenzyl)-2,3-dioxopiperazine-1-carboxamido)-2-(2-chloro-5-fluoro-3,4-dihydroxyphenyl)acetamido)-7-fluoro-2-hydroxy-3,4-dihydro-2H-benzo[e][1,2]oxaborinine-8-carboxylic acid]	< 10 µM	> 128 µg/mL	> 128 µg/mL	> 128 µg/mL
O=C(NCCCN1CCN(C(=O)N[C@@H](C(=O)N[C@H]2Cc3ccc(F)c(C(=O)O)c3OB2O)c2cc(F)c(O)c(O)c2Cl)C(=O)C1=O)c1ccncc1 [Example 294, (R)-3-((R)-2-(2-chloro-5-fluoro-3,4-dihydroxyphenyl)-2-(4-(3-(isonicotinamido)propyl)-2,3-dioxopiperazine-1-carboxamido)acetamido)-7-fluoro-2-hydroxy-3,4-dihydro-2H-benzo[e][1,2]oxaborinine-8-carboxylic acid]	< 10 µM	< 1 µg/mL	2 to 4 µg/mL (≈ 2.69 to 5.37 µM)	< 1 µg/mL
O=C(NCCCN1CCN(C(=O)N[C@H](C(=O)N[C@H]2Cc3ccc(F)c(C(=O)O)c3OB2O)c2cc(F)c(O)c(O)c2Cl)C(=O)C1=O)c1ccnc(F)c1F [Example 299, (R)-3-((S)-2-(2-chloro-5-fluoro-3,4-dihydroxyphenyl)-2-(4-(3-(2,3-difluoroisonicotinamido)propyl)-2,3-dioxopiperazine-1-carboxamido)acetamido)-7-fluoro-2-hydroxy-3,4-dihydro-2H-benzo[e][1,2]oxaborinine-8-carboxylic acid]	10 to 50 µM	> 128 µg/mL	8 to 16 µg/mL (≈ 10.2 to 20.5 µM)	2 to 4 µg/mL (≈ 2.56 to 5.12 µM)
O=C(NCCCN1CCN(C(=O)N[C@H](C(=O)N[C@H]2Cc3ccc(F)c(C(=O)O)c3OB2O)c2cc(F)c(O)c(O)c2Cl)C(=O)C1=O)c1cccc(O)c1Cl [Example 302, (R)-3-((S)-2-(4-(3-(2-chloro-3-hydroxybenzamido)propyl)-2,3-dioxopiperazine-1-carboxamido)-2-(2-chloro-5-fluoro-3,4-dihydroxyphenyl)acetamido)-7-fluoro-2-hydroxy-3,4-dihydro-2H-benzo[e][1,2]oxaborinine-8-carboxylic acid]	50 to 250 µM	> 128 µg/mL	> 128 µg/mL	> 128 µg/mL
